Experimental data: patent US20040197855A1, “Test system for determining gene toxicities” (priority 2001, published 2004)

Experiments:
[1] = test system: mice; settings: cited from earlier work
[2] = test system: rats; settings: cited from earlier work
[3] = test system: yeast and mammalian cells; settings: cited from earlier work
[4] = test system: Salmonella typhimurium; settings: cited from earlier work
[5] = test system: GalER-VP; test: Estradiol-inducible expression of I-SceI meganuclease in KMV cells; type: cell-based, human; settings: KMV clones with genomic pGC-Sce; Gal4 recognition sequence promoter
Text: In order to achieve controlled meganuclease expression because of the antiproliferative effect of DSBs, the extremely reliable, β-estradiol-inducible expression system was selected according to a preferred embodiment of the invention (Braselmann, S. et al. (1993) Proc. Natl. Acad. Sci. USA 90: 1657-1661; Dudenhöffer, C. (1999) Oncogene 18: 5773-5784). The expression system couples the so-called Gal4ER transcription factor to an expression cassette controlled by a Gal4ER-responsive promoter (compare FIG. 2). Gal4ER represents a fusion protein of the DNA binding domain of the Gal4 transcription factor with the strong, viral VP16 transactivator domain and a β-estradiol binding domain of the human β-estradiol receptor, making Gal4ER functionally inducible as transcription factor by β-estradiol. This principle of conditional expression permits an inducible increase in protein expression by at least one order of magnitude. […] Inducible I-SceI expression was detected in Western blot experiments. […]

SMILES | tumours in mice [1] | tumours in rats [2] | recombination events leading to deletions [3] | result in the Ames assay [4] | lowest concentration for complete promoter induction [5] [nM]
Cc1ccccc1N [o-toluidine] | cause tumours | cause tumours | triggered | negative | –
C[C@]12CC[C@@H]3c4ccc(O)cc4CC[C@H]3[C@@H]1CC[C@@H]2O [β-estradiol] | – | – | – | – | 50
